Results: US10196395B2, “Crystalline form alpha of IPI-145 and preparation method thereof” (CRYSTAL PHARMATECH CO., LTD., priority 2015, dated 2019)
“Also recorded” adds a separate entry of the source.

Key:
[1] = cited from earlier work
[2] = Hygroscopicity assessment by dynamic vapor sorption (DVS); format: physicochemical; conditions: 25° C.; for Weight gain under 80% RH: DVS, 10 mg
Method: Dynamic Vapor Sorption (DVS) was measured via Dynamic Vapor Sorption Intrinsic manufacture by SMS's (Surface Measurement Systems Ltd.). Typical Parameters for DVS test were listed below.
Gas and flow rate: N2, 200 mL/min
RH range: 0% RH to 95% RH
Hygroscopicity of 10 mg Form α of the present invention was tested using dynamic vapor sorption (DVS).
About hygroscopicity characterization description and definition of hygroscopicity (Chinese Pharmacopoeia 2010 edition appendix XIXJ Drug hygroscopic test guidelines, test at 25° C.±1, 80% Relative Humidity) • deliquescent: sufficient water is absorbed to form a liquid; • very hygroscopic: increase in mass is equal to or greater than 15 percent; • hygroscopic: increase in mass is less than 15 percent and equal to or greater than 2 percent; • slightly hygroscopic: increase in mass is less than 2 percent and equal to or greater than 0.2 percent; • no or almost no hygroscopic: increase in mass is less than 0.2%.

[3] = Stability assessment: 1:1 mixture of Form α and anhydrous Form A stirred in tetrahydrofuran, solid tested by XRPD; format: physicochemical; conditions: 25° C. and 50° C.
Method: Form α of the present disclosure and anhydrous Form A in CN103648499A were mixed with a mass ratio of 1:1 and stirred in tetrahydrofuran at 5° C., 25° C. and 50° C. at a rate of 500 r/min for 24 h.

SMILES: C[C@H](Nc1ncnc2[nH]cnc12)c1cc2cccc(Cl)c2c(=O)n1-c1ccccc1 [Form C, (S)-3-(1-(9H-purin-6-ylamino)ethyl)-8-chloro-2-phenylisoquinolin-1(2H)-one]
- Crystallinity after grinding [1]: decrease or turns into amorphous

SMILES: C[C@H](Nc1ncnc2[nH]cnc12)c1cc2cccc(Cl)c2c(=O)n1-c1ccccc1 [Form α, (S)-3-(1-(9H-purin-6-ylamino)ethyl)-8-chloro-2-phenylisoquinolin-1(2H)-one]
- Hygroscopicity according to hygroscopic test guidelines ([2]; Chinese Pharmacopoeia 2010 definition, 80% Relative Humidity): slightly hygroscopic (increase in mass is less than 2 percent and equal to or greater than 0.2 percent)
- Weight gain under 80% RH ([2]; listed as Crystalline Form α of compound of Formula (I)): 0.67%
- Weight gain under 80% RH ([2]; listed as crystalline Form α): 0.67%
- Stability relative to anhydrous Form A in CN103648499A ([3]; conclusion from stirring the mixture at 5° C.): more thermodynamic stable than Form A in CN103648499A; also recorded: more stable than anhydrous Form A in CN103648499A

SMILES: C[C@H](Nc1ncnc2[nH]cnc12)c1cc2cccc(Cl)c2c(=O)n1-c1ccccc1 [Form A, (S)-3-(1-(9H-purin-6-ylamino)ethyl)-8-chloro-2-phenylisoquinolin-1(2H)-one]
- Form conversion on stirring ([3]; at 5° C., tetrahydrofuran, 24 h): converted to Form α
